Test results reported in PubChem BioAssay AID179 (DTP/NCI, 2004).
Values joined by “and” are separate entries in the source; they are usually repeats but may differ in a detail not shown here. Equal values may be shown once. Active and inactive are the calls of the source.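 The calls were made as follows: active = compounds giving half or more protection of infected cells from virus-caused growth loss, again on retest; inactive = the rest.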 *1 amine or outer side, *2 acyl side, *3 side chain or, on linkers, in order; H or OH if unused. Where a SMILES comes first, the peptide text is derived from it. [ ]: non-standard residue; d: D form. The star is where a group is joined. ξ: configuration not given here. X7 = NC(N)=NCC(O)CC(N[*:1])C(=O)[*:2]; AllylGly = C=CC[CH](N)C(=O)O; ξF = NC(Cc1ccccc1)C(=O)O; Orn = NCCC[CH](N)C(=O)O; Cbz = O=C(OCc1ccccc1)*; Boc = CC(C)(C)OC(=O)*; Aib = CC(C)(N)C(=O)O; Bn = c1ccc(C*)cc1; OtBu = CC(C)(C)O*

Tested on: CEM cells HIV-1 protection, formazan growth assay
Assay: NCI AIDS Antiviral Assay
Details: for IC50: measured here: growth of uninfected CEM cells
Outline: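 Soluble formazan readout of cell growth; CEM cells ± HIV-1; 5 drug concs. ≥50% protection → retest; ≥50% again = moderately active; reproducible 100% = confirmed active.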

SMILES	EC50 [µM]	IC50	outcome
COc1cc(N=Nc2ccc(S(=O)(=O)O)cc2)c(C)cc1N=Nc1cc(S(=O)(=O)O)c(NC(=O)c2ccc(N)cc2)cc1NC(C)=O	13.2	> 200 µM	–
NC(=S)NCC12CC3CC(CC(C3)C1)C2	–	–	inactive
CC[C@]1(Cc2ccc(OC)c(OC)c2)C=[N+]([O-])O[C@H](OC2CCCCC2c2ccccc2)[C@@H]1OC(C)=O (some centres not stated)	> 200	30.2 µM	–
O=C1CC(=O)NC(=NN2C(=O)CSC2c2ccccc2)N1 (configuration not stated)	> 200	> 200 µM	–
Cc1nn(C(=O)c2c(O)cccc2Cl)c(C)c1N=Nc1ccccc1	–	–	inactive
COC(=O)C1=C(C(=O)OC)N2c3ccccc3-n3c(-c4ccccc4)cc(OC)c3C2(C)C(C(=O)OC)=C1C(=O)OC (configuration not stated)	> 53.7	> 53.7 µM	–
CC(C)(C)C(=O)OCC(COC(=O)C(C)(C)C)[N+](=O)[O-]	–	–	inactive
CCOC(=O)CCC(NC(=O)c1ccc(Nc2nc3cc(C(F)(F)F)ccc3nc2C(=O)OCC)cc1)C(=O)OCC (configuration not stated)	> 191	4.57 µM	–
Cc1cn(C2CC(N=[N+]=[N-])C(COC(=O)C(O)[C@@]3(O)CC[C@H]4[C@@H]5CCC6=CC(=O)C=C[C@]6(C)[C@H]5[C@@H](O)C[C@@]43C)O2)c(=O)[nH]c1=O (some centres not stated)	0.708	> 200 µM	–
Nc1ncnc2c1ncn2C(=O)NC12CC3CC(CC(C3)C1)C2	> 100	> 100 µM	–
CCOC(=O)c1cn2c([nH]c3ccccc32)c(C#N)c1=O	> 47.9	> 47.9 µM	–
N#CC(C#N)=C/C=C/c1c(Cl)cccc1Cl	> 200	2.57 µM	–
CC1CCCN(CCSSCCN2CCCC(C)C2)C1 (configuration not stated)	> 200	70.8 µM	–
COc1ccc(Nc2nc3cc(C(F)(F)F)ccc3nc2-c2ccccc2)cc1OC	> 30.9	> 30.9 µM	–
Cc1ccc(N2C=[N+](C)c3ccc(C)cc3C2)cc1	> 200	33.9 µM	–
CC1(c2ccccc2)CCN(C2CC2)CO1 (configuration not stated)	> 200	23.4 µM	–
C=C1CN(S(=O)(=O)c2ccc(C)cc2)CCCN(Cc2ccccc2)CCN(S(=O)(=O)c2ccc(C)cc2)C1	> 200	155 µM	–
COc1cc2c(cc1OC)CCc1cc(OC)c(OC)cc1CC2	> 200	89.1 µM	–
CCOC(=O)C(NC(=O)c1cccc(Cl)c1)(Nc1cccc(C)c1)C(F)(F)F (configuration not stated)	> 200	17.4 µM	–
CN1C(=O)C(C)(C)NS1(=O)=O	–	–	inactive
CC(=O)Oc1ccc2c(c1)O/C(=C\c1ccc(O)cc1)C2=O	> 200	138 µM	–

SMILES	EC50 [µM]	IC50	outcome
NC(=O)/C(=N\NC(=O)c1cc2ccccc2cc1O)C1C(=O)N(c2ccccc2)N=C1N (configuration not stated)	> 219	13.8 µM	–
O=c1cc(NNc2ccc(F)cc2)[nH]c(=O)[nH]1	> 200	2.95 µM	–
CC(C)OP(=O)(OC(C)C)/C(=N/Nc1ccccc1[N+](=O)[O-])NNC(=O)c1ccccc1	> 1.17	> 1.17 µM	–
COc1ccc(Cc2nc3ccccc3[nH]2)cc1OC	> 200	89.1 µM	–
O=C1OC(C2(O)OC(=O)c3ccccc32)c2ccccc21 (configuration not stated)	> 200	> 200 µM	–
NS(=O)(=O)c1ccc(NC(=O)c2ccc3nc4ccccc4c(Nc4ccc(S(N)(=O)=O)cc4)c3c2)cc1	67.6	> 200 µM	–
CCC[CH2][Sn]1([CH2]CCC)[O]CC(CN2CCCCC2)[O]1 (configuration not stated)	> 9.33	0.0646 µM	–
COCOc1ccc(C(=O)C(C)c2ccc(OCOC)cc2OCOC)c(O)c1 (configuration not stated)	> 200	25.7 µM	–
CCOC(=O)C1(C(=O)OCC)C[C@H](C)[C@](C)(O)C1	> 200	> 200 µM	–
N#CC1(C#N)C(C#N)(C#N)C12CCCCC2Cl (configuration not stated)	> 20	> 20 µM	–
CCN(CC)c1ccc2cc(-c3nc4ccccc4[nH]3)c(=O)oc2c1	> 7.76	> 7.76 µM	–
CCN(CC)CCOc1ccc2c(c1)C(=O)c1cc(OCCN(CC)CC)ccc1-2	> 200	12.3 µM	–
C=CCCCN1CCCCC1=S	> 251	> 251 µM	–
O=C(O)Cc1cccc2c(=O)c(-c3ccccc3)coc12	> 200	> 200 µM	–
COCCCC(NC(=O)C(CC(C)C)NC(=O)OCc1ccc(OC)cc1)C(N)=O (configuration not stated)	> 200	182 µM	–
O=C1CCn2c([nH]c3cccc4cccc2c43)=N1	> 151	148 µM	–
CN(c1ccc(Cl)cc1)S(=O)(=O)c1ccccc1	> 200	50.1 µM	–
CC(C)=CCC/C(C)=C/Cc1cc2ccc(=O)oc2cc1O	> 63.1	32.4 µM	–
CCn1cc(C(=O)O)c(=O)c2cc3c(cc21)S(=O)(=O)CC3	> 200	> 200 µM	–
COc1cc(C2SCC(=O)N2c2ccc(-n3c(-c4ccccc4)nc4ccccc4c3=O)cc2)ccc1O (configuration not stated)	> 200	102 µM	–
N#C/C(=N/Nc1nc[nH]c1C(N)=O)C(=O)Nc1ccccc1	> 200	1.07 µM	–

SMILES	EC50 [µM]	IC50	outcome
Cc1c(C2(c3cc(Br)c(O)c(Br)c3C)OS(=O)(=O)c3ccccc32)cc(Br)c(O)c1Br	–	–	inactive
S=C1NC(c2ccc(Cl)cc2)N2C(=S)NC(c3ccc(Cl)cc3)N12 (configuration not stated)	–	–	inactive
C=C1C2CC[C@@H]3C(C2)(C(=O)C(O)[C@@H]2C(C)(C)[C@@H]4CC(=O)C32CO4)C1OC(C)=O (some centres not stated)	> 646	8.13 µM	–
O=C(O)[C@@H]1CSC(C(O)C(O)C(O)C(O)CO)N1 (some centres not stated)	> 200	> 200 µM	–
O=C1c2ccccc2C(=O)c2cc3c(cc21)CS(=O)C3	–	–	inactive
CCOC(=O)C1(C/C=C\CBr)CCCCCCC1=O (configuration not stated)	> 200	16.2 µM	–
CCOC(=O)c1cn2c(n1)sc1cc(OC)ccc12	> 20	1.7 µM	–
CCCCCCCCCCCCCCCCOP(=O)(O)OP(=O)(O)OCC1OC(n2cnc3c(N)ncnc32)C(O)C1O (configuration not stated)	> 200	120 µM	–
CN(C)CCNC(=O)c1cccc(C(=O)Nc2ccccc2)c1[N+](=O)[O-]	> 200	> 200 µM	–
C=CCC(NC(=O)C(CC(=O)OC(C)(C)C)NC(=O)OC(C)(C)C)C(=O)OC (configuration not stated) (Boc-Asp(OtBu)-[AllylGly]-OMe; configuration not given here)	> 200	97.7 µM	–
O=c1cc2n(c(=O)[nH]1)C1OC(C(O)C1O)[C@H]2CCO (some centres not stated)	–	–	inactive
S=c1cc(S)c(=S)[nH][nH]1	> 63.1	19.5 µM	–
O=C1c2ccccc2-c2cc(S)c([N+](=O)[O-])cc21	> 200	145 µM	–
O=C(Nc1ccccc1)c1ccccc1[Se][Se]c1ccccc1C(=O)Nc1ccccc1	5.37	9.55 µM	–
COc1ccc(C(C)NNC(=O)c2ccncc2)c(OC)c1 (configuration not stated)	> 200	29.5 µM	–
CNC(=O)C(CC(C)C)NC(=O)C(C)NC(=O)C(Cc1ccc(OCc2ccccc2)cc1)NC(=O)C(COCc1ccccc1)NC(=O)OC(C)(C)C (configuration not stated) (Boc-S(Bn)Y(Bn)AL-NHMe; configuration not given here)	> 200	9.55 µM and 13.5 µM	–
CCCNC(C#N)c1ccc(OCCCCCCCCCCOc2ccc(C(C#N)NCCC)cc2)cc1 (configuration not stated)	> 200	11 µM	–
CC(O)C(NC(=O)C(CCCN)NC(=O)C(CC(O)CN=C(N)N)NC(=O)C(N)CCCN=C(N)N)C(=O)NC(CCCN)C(=O)NC(CC(O)CN=C(N)N)C(=O)NC(Cc1ccc(O)cc1)C(=O)O (configuration not stated) (tested in a mixture with another compound) (H-R[X7][Orn]T[Orn][X7]Y-OH; configuration not given here)	> 47.9	39.8 µM	–
COC(=O)C12C(=O)CC3CCC1C32C(=O)OC (configuration not stated)	–	–	inactive
CCN(C(=O)N[C@@H](C)C(=O)N[C@@H](Cc1ccccc1)C(=O)OC)c1ccccc1	–	–	inactive
O=S(O)CCCCSSCCCCSSCCCCS(=O)O	–	–	inactive

SMILES	EC50 [µM]	IC50	outcome
CC1(C)C2CCC(N)(C2)C1N (configuration not stated)	> 200	> 200 µM	–
Cc1ccc(SSCCN)cc1	> 200	11.7 µM	–
Nn1c(C23CC4CC(CC(C4)C2)C3)n[nH]c1=S	182	> 200 µM	–
CC12CCC(C)(O1)C1C(=O)N(c3nccs3)C(=O)C12 (configuration not stated)	> 891	> 891 µM	–
c1ccc(SC2CC[C@H]3CCCC[C@H]3O2)cc1 (some centres not stated)	–	–	inactive
Cc1ccccc1N=CN(C)C	> 200	42.7 µM	–
CC(=O)c1c(-c2ccc(Cl)cc2)c(C#N)c(=S)n(C2OC(CO)C(O)C(O)C2O)c1-c1ccccc1 (configuration not stated)	> 200	28.2 µM and 14.1 µM	–
CCOC1=NC(C(F)(F)F)(C(F)(F)F)N=C(/N=C(/N)N(C)C(C(C)C)P(=O)(OC(C)C)OC(C)C)O1 (configuration not stated)	> 200	31.6 µM	–
O=C(O)/C=C/n1c2ccccc2c(=O)c2ccccc21	> 70.8	> 70.8 µM	–
COC(=O)C(C)(C)NC(=O)C(Cc1ccccc1)NC(=O)C(C)(C)NC(=O)OCc1ccccc1 (configuration not stated) (Cbz-[Aib]-[ξF]-[Aib]-OMe)	195	741 µM	–
COc1ccc(/C=C2\NC(=S)N(/C=C3\C(=O)Oc4ccccc4C3=O)C2=O)cc1	> 200	148 µM	–
CC[C@H]1OC(=O)[C@H](C)[C@@H](OC2CC(C)(OC)C(O)C(C)O2)[C@H](C)[C@@H](OC2OC(C)CC(N(C)C)C2OC(=O)CCC2CCCC2)[C@](C)(O)C[C@@H](C)C(=O)[C@H](C)[C@@H](O)[C@]1(C)O (some centres not stated)	> 100	40.7 µM	–
CCOP(=O)(OCC)OC1c2[nH]ccc2-c2cc(C(=O)OC)[nH]c2C1OC (configuration not stated)	> 200	102 µM	–
CC(C)(C)N=C(NO)c1ccccc1	–	–	inactive
CC(C(=O)O)c1ccc2oc(-c3ccc(Cl)cc3)nc2c1 (configuration not stated)	> 200	> 200 µM	–
CN(C)CCC(=O)/C=C\c1ccccc1	–	–	inactive
Nc1nc(=S)c2c(ncn2CC(O)CO)[nH]1 (configuration not stated)	363	525 µM	–
[O-][n+]1nc(N2CCOCC2)nc2ccccc21	> 200	> 200 µM	–
O=C1c2ccccc2C2(O)N(c3ccccc3)C(=S)N(c3ccccc3)C12O (configuration not stated)	> 646	316 µM	–
CCN(CC)CCn1c2c3ccccc3ccc2c2oc(=O)c3ccccc3c21	> 16.2	> 16.2 µM	–
